{"source": "patent US20210186982A1", "about": "“METHODS AND COMPOSITIONS FOR TREATING MELANOMA” (UNIVERSITE NICE SOPHIA ANTIPOLIS, priority 2017, published 2021)", "key": {"451Iu": {"test_system": "451Iu", "test": "MTS conversion assay, melanoma cell proliferation", "type": "cell-based", "conditions": "Homo sapiens, MET, BRAFV600E/p53*, resistance none, 48 h MTS, read-out: b-AP15 IC50", "protocol": "(§1) Cell proliferation was measured by a MTS conversion assay using the CellTiter 96® Aqueous Non-Radioactive Cell Proliferation kit (Promega, Madison Wis.) according to the manufacturer instructions. Cells were seeded in 96-well plates (5×10^4 cells/well) and treated with different reagents for the indicated times and incubated at 37° C. with MTS reagent. The optical density of each sample at 490 nm was determined with a Multiskan FC plate reader (Thermo Fisher Scientific, Waltham, Mass. USA)."}, "A375DR": {"test_system": "A375DR", "test": "MTS conversion assay, melanoma cell proliferation", "type": "cell-based", "conditions": "Homo sapiens, MET, BRAFV600E/CDKN2A*/?, resistance vemurafenib/ERKi, 48 h MTS, read-out: b-AP15 IC50", "protocol": "as §1"}, "HMV2": {"test_system": "HMV2", "test": "MTS conversion assay, melanoma cell proliferation", "type": "cell-based", "conditions": "Homo sapiens, HMV-2, MET, NRAS*, resistance none, 48 h MTS, read-out: b-AP15 IC50", "protocol": "as §1"}, "MeWo": {"test_system": "MeWo", "test": "MTS conversion assay, melanoma cell proliferation", "type": "cell-based", "conditions": "Homo sapiens, MET, p53*/CDKN2A*, resistance none, 48 h MTS, read-out: b-AP15 IC50", "protocol": "as §1"}, "Mel1617R": {"test_system": "Mel1617R", "test": "MTS conversion assay, melanoma cell proliferation", "type": "cell-based", "conditions": "Homo sapiens, MET, BRAF*/p53*/?, resistance dabrafenib, 48 h MTS, read-out: b-AP15 IC50", "protocol": "as §1"}, "Mel1617": {"test_system": "Mel1617", "test": "MTS conversion assay, melanoma cell proliferation", "type": "cell-based", "conditions": "Homo sapiens, MET, BRAF*/p53*, resistance none, 48 h MTS, read-out: b-AP15 IC50", "protocol": "as §1"}, "SBCL2": {"test_system": "SBCL2", "test": "MTS conversion assay, melanoma cell proliferation", "type": "cell-based", "conditions": "Homo sapiens, RGP, NRASQ61K, resistance none, 48 h MTS, read-out: b-AP15 IC50", "protocol": "as §1"}, "WM164": {"test_system": "WM164", "test": "MTS conversion assay, melanoma cell proliferation", "type": "cell-based", "conditions": "Homo sapiens, MET, BRAFV600E/CDKN2A*, resistance none, 48 h MTS, read-out: b-AP15 IC50", "protocol": "as §1"}, "WM266-4": {"test_system": "WM266-4", "test": "MTS conversion assay, melanoma cell proliferation", "type": "cell-based", "conditions": "Homo sapiens, WM 266-4, MET, BRAFV600D/PTEN*, resistance none, 48 h MTS, read-out: b-AP15 IC50", "protocol": "as §1"}, "WM793": {"test_system": "WM793", "test": "MTS conversion assay, melanoma cell proliferation", "type": "cell-based", "conditions": "Homo sapiens, VGP, BRAFV600E/PTEN*, resistance none, 48 h MTS, read-out: b-AP15 IC50", "protocol": "as §1"}, "m229": {"test_system": "m229", "test": "MTS conversion assay, melanoma cell proliferation", "type": "cell-based", "conditions": "Homo sapiens, MET, BRAFV600E/PTEN*, resistance none, 48 h MTS, read-out: b-AP15 IC50", "protocol": "as §1"}, "m238R": {"test_system": "m238R", "test": "MTS conversion assay, melanoma cell proliferation", "type": "cell-based", "conditions": "Homo sapiens, MET, BRAFV600E/PTEN*/RTK*, resistance vemurafenib, 48 h MTS, read-out: b-AP15 IC50", "protocol": "as §1"}, "m238": {"test_system": "m238", "test": "MTS conversion assay, melanoma cell proliferation", "type": "cell-based", "conditions": "Homo sapiens, MET, BRAFV600E/PTEN*, resistance none, 48 h MTS, read-out: b-AP15 IC50", "protocol": "as §1"}, "m249R": {"test_system": "m249R", "test": "MTS conversion assay, melanoma cell proliferation", "type": "cell-based", "conditions": "Homo sapiens, MET, BRAFV600E/PTEN*/NRAS*, resistance vemurafenib, 48 h MTS, read-out: b-AP15 IC50", "protocol": "as §1"}, "m249": {"test_system": "m249", "test": "MTS conversion assay, melanoma cell proliferation", "type": "cell-based", "conditions": "Homo sapiens, MET, BRAFV600E/PTEN*, resistance none, 48 h MTS, read-out: b-AP15 IC50", "protocol": "as §1"}, "451IuR": {"test_system": "451IuR", "test": "MTS conversion assay, melanoma cell proliferation", "type": "cell-based, human", "protocol": "as §1"}, "m229R": {"test_system": "m229R", "test": "MTS conversion assay, melanoma cell proliferation", "type": "cell-based, human", "protocol": "as §1"}, "[1]": {"test": "Annexin-V-FITC/7-AAD flow cytometry, cell viability", "type": "cell-based", "conditions": "human, A375 cells; solvent 87%", "protocol": "Cell death was evaluated by flow cytometry following staining with Annexin-V-FITC and 7-AAD (eBiosciences) as previously described 24."}, "451Lu-R Luc+ cells": {"test_system": "451Lu-R Luc+ cells", "test": "Melanoma xenograft in nude mice, tumor bioluminescence", "type": "in vivo", "conditions": "10 mgkg-1 i.p. every 3 days, vs vehicle", "protocol": "(§2) All mouse experiments were carried out in accordance with the Institutional Animal Care and the local ethics committee. For human melanoma xenografts, 5-week-old female athymic (nu/nu) mice (Harlan) were subcutaneously injected with 1×106 451Lu-R BRAF inhibitor resistant melanoma cells engineered to express a luciferase reporter (451Lu-R Luc+ cells) in 100 μl of PBS. After 3 days, mice were injected every 3 days intraperitoneally with vehicle or 10 mgkg-1 b-AP15 in 90/1/9 mix of Labrafil/Tween 80/DMA. At the indicated time, mice were anesthetized and injected intraperitoneally with 50 mgkg-1 D-luciferin (Perkin Elmer) in PBS. Images were acquired using a Photon Imager (Biospace Lab) system and data analysed with the M3Vision software (Biospace Lab). Tumor growth was monitored and quantified using BLI. The total numbers of photons per second per steradian per square centimeter were recorded. For BLI plots, photon flux was calculated for each mouse by using a rectangular region of interest encompassing the thorax of the mouse in a prone position."}, "[2]": {"test": "Body weight during xenograft study", "type": "in vivo", "conditions": "10 mgkg-1 i.p. every 3 days; nude mice; course of the study", "protocol": "as §2"}, "A375 cells": {"test_system": "A375 cells", "test": "ROS production (CM-H2DCFDA, flow cytometry)", "type": "cell-based, human", "conditions": "2 μM b-AP15 for 30 min", "protocol": "ROS levels were measured using the redox-sensitive dye CM-H2DCFDA (Thermo Fischer Scientific). After treatment, cells were stained with 10 μM CM-H2DCFDA in PBS for 30 min at 37° C. Cells were washed with PBS and resuspended in PBS 5 mM EDTA/1% BSA. ROS production was analysed using a MACSQuant® Analyzer 10 cytometer (Miltenyi Biotech)."}, "[3]": {"test_system": "K48-linked poly-ubiquitinated proteins", "test": "Immunoblot analysis of poly-ubiquitinated proteins in A375 cells", "type": "cell-based, human", "protocol": "Melanoma cells were harvested as described before 6. Cells were lysed at 4° C. in RIPA buffer (Millipore) supplemented with Pierce™ Protease and Phosphatase Inhibitor Mini Tablets, and briefly sonicated. Cell lysates were cleared at 16,000 xg for 15 min at 4° C. Whole cell lysates were subjected to SDS-PAGE and immunoblot analysis as previously described 6."}, "[4]": {"conditions": "24 h, increasing doses 0.1 to 10 μM"}}, "data": [{"smiles": "Cc1cc(C(=O)CN2CCCC2)c(C)n1-c1ccc(F)cc1", "note": "[b-AP15]", "values": [{"measurement": "IC50", "setting": "451Iu", "result": 900, "unit": "nM"}, {"measurement": "IC50", "setting": "A375DR", "result": 1300, "unit": "nM"}, {"measurement": "IC50", "setting": "HMV2", "result": 1800, "unit": "nM"}, {"measurement": "IC50", "setting": "MeWo", "result": 700, "unit": "nM"}, {"measurement": "IC50", "setting": "Mel1617R", "result": 900, "unit": "nM"}, {"measurement": "IC50", "setting": "Mel1617", "result": 1400, "unit": "nM"}, {"measurement": "IC50", "setting": "SBCL2", "result": 400, "unit": "nM"}, {"measurement": "IC50", "setting": "WM164", "result": 900, "unit": "nM"}, {"measurement": "IC50", "setting": "WM266-4", "result": 500, "unit": "nM"}, {"measurement": "IC50", "setting": "WM793", "result": 300, "unit": "nM"}, {"measurement": "IC50", "setting": "m229", "result": 1200, "unit": "nM"}, {"measurement": "IC50", "setting": "m238R", "result": 200, "unit": "nM"}, {"measurement": "IC50", "setting": "m238", "result": 400, "unit": "nM"}, {"measurement": "IC50", "setting": "m249R", "result": 3000, "unit": "nM"}, {"measurement": "IC50", "setting": "m249", "result": 2000, "unit": "nM"}, {"measurement": "cell proliferation of BRAFi-resistant 4511uR cells (MTS)", "setting": "451IuR; [4]", "result": "potently decreased cell proliferation"}, {"measurement": "IC50", "setting": "451IuR; Homo sapiens, 451IuR, MET, BRAFV600E/p53*/?, resistance dabrafenib, 48 h MTS, read-out: b-AP15 IC50", "result": 1300, "unit": "nM"}, {"measurement": "cell proliferation of BRAFi-resistant m229R cells (MTS)", "setting": "m229R; [4]", "result": "potently decreased cell proliferation"}, {"measurement": "IC50", "setting": "m229R; Homo sapiens, m229R, MET, BRAFV600E/PTEN*/RTK*, resistance vemurafenib, 48 h MTS, read-out: b-AP15 IC50", "result": 1100, "unit": "nM"}, {"measurement": "viability", "setting": "[1]", "result": 52, "unit": "%"}, {"measurement": "melanoma burden, bioluminescence analysis of tumor growth", "setting": "451Lu-R Luc+ cells", "result": "marked decrease in melanoma burden"}, {"measurement": "tolerability / weight loss", "setting": "[2]", "result": "no weight loss was observed"}, {"measurement": "ROS production", "setting": "A375 cells", "result": "triggered a rapid burst of ROS"}, {"measurement": "K48-linked poly-ubiquitinated proteins", "setting": "[3]", "result": "induced a rapid accumulation"}]}]}
